Holding throughout (experiment): NCI anticancer screen, dose series, 48 h
Assay [1] concerns SK-MEL-28.
The subject of assay [2] is MDA-MB-435.
In assay [3] the test system is MCF7.
In assay [4] the test system is NCI-H522.
Assay [5] concerns HCT-15.
For assay [6], the system named is SW-620.
Assay [7] concerns NCI/ADR-RES.
Assay [8] deals with HT-29.
The subject of assay [9] is K562.
Assay [10] has as its system IGROV-1.
In assay [11] the test system is RPMI-8226.
Assay [12] relates to NCI-H226.
Assay [13] deals with MDA-N.
Assay [14] concerns SNB-75.
Assay [15] relates to SK-MEL-2.
Assay [16] concerns HCC 2998.
Assay [17] relates to PC-3.
Assay [18] concerns HL-60.
In assay [19] the test system is BT-549.
Assay [20] relates to LOX IMVI.

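Values below derive from 48-hour exposures of cells grown in 96-well plates, with endpoints linearly interpolated between the two concentrations bracketing the appropriate inhibition level. GI50 is the concentration that inhibits growth by half.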 Active and inactive are the calls of the source. No stated cut-off is given here; in the data, active = GI50 up to about 1.1 µM and inactive = higher.

For `O=C(/C=C\c1ccc(-c2ccccc2)cc1)c1cccs1`, the GI50 is > 100 µM (inactive) in [1]; 17.5 µM (inactive) in assay [2]; 3.56 µM (inactive) in assay [3]; 3.87 µM (inactive) in assay [4]; 7.74 µM in assay [5]; 5.41 µM (inactive) in [6]. Besides, the GI50 in assay [7] is 26.7 µM (inactive); in assay [8] it was 3.38 µM (inactive); in [9], 3.7 µM (inactive); in assay [10], 29.4 µM (inactive); in [11], 3.23 µM (inactive); in [12], > 69.8 µM (inactive). Further, the GI50 in assay [13] is 7.89 µM (inactive); in assay [14], 28.6 µM (inactive); in [15], 39.4 µM (inactive); in [16] it was > 28.4 µM (inactive); in assay [17], > 100 µM (inactive); in assay [18], 3.89 µM (inactive). The GI50 in assay [19] is 15.6 µM (inactive); in [20], 3.88 µM (inactive).

As for `CSc1cnc2ccccc2c1SC1CN(Cc2ccccc2)c2ccccc2C1=O` (centres undefined), the GI50 in assay [1] is > 100 µM (inactive); in assay [2], > 100 µM (inactive); in [3] it was > 100 µM (inactive); in [4], > 100 µM (inactive); in [5], greater than 100 µM; in [6], > 100 µM (inactive). Moreover, the GI50 was > 100 µM (inactive) in assay [7]; 47.9 µM (inactive) in assay [8]; > 100 µM (inactive) in assay [9]; > 100 µM (inactive) in assay [10]; > 100 µM (inactive) in [11]; > 100 µM (inactive) in assay [12]. Moreover, the GI50 in assay [13] is > 100 µM (inactive); in [14] it was 83.4 µM (inactive); in assay [15], > 100 µM (inactive); in assay [16] it was > 100 µM (inactive); in [17], > 100 µM (inactive); in [18] it was 35 µM (inactive). Further, the GI50 in assay [19] and in [20] was > 100 µM (inactive) in each case.

`CCc1nc(N)nc(N)c1-c1ccc(Cl)c(/N=C/N(C)C)c1`: the GI50 in assay [1] was > 100 µM (inactive); in assay [2], 45.9 µM (inactive); in assay [3] it was 57.8 µM (inactive); in assay [4] it was 24.1 µM (inactive); in assay [5] it was 10.4 µM; in assay [6], 22.3 µM (inactive). In addition, the GI50 in assay [7] was > 93.1 µM (inactive); in assay [8] it was 18.8 µM (inactive); in assay [9], 6.03 µM (inactive); in assay [10], 27.1 µM (inactive); in [11], 54.3 µM (inactive); in assay [12] it was > 100 µM (inactive). Moreover, the GI50 in assay [13] is 45.9 µM (inactive); in [14], > 96.4 µM (inactive); in [15] it was > 100 µM (inactive); in assay [16] it was 41.2 µM (inactive); in assay [17], 25.9 µM (inactive); in assay [18], > 39.7 µM (inactive). Further, the values for the GI50 in [19] and in [20] were > 81.7 µM (inactive) and 19.2 µM (inactive), respectively.

With `CCOC(=O)C(SCCO)C(C(=O)OCC)n1cnc2c(=O)[nH]c(NC(C)=O)nc21` (centres undefined), the GI50 is > 100 µM (inactive) in assay [1]; > 100 µM (inactive) in assay [2]; > 100 µM (inactive) in assay [3]; > 100 µM (inactive) in [4]; greater than 100 µM in assay [5]; > 100 µM (inactive) in [6]. The GI50 in assay [7], in assay [8], in [9], in [10], in assay [11] and in assay [12] was > 100 µM (inactive) each time. The GI50 in assay [13], in [14], in assay [15], in assay [16], in [17] and in [18] was > 100 µM (inactive) in each case. Also, the results for the GI50 in assay [19] and in assay [20] were > 100 µM (inactive) and 51.8 µM (inactive), respectively.

`O=c1c(C(c2ccc3c(c2)Cc2ccccc2-3)c2c(O)oc3ccccc3c2=O)c(O)oc2ccccc12`: the GI50 in assay [1] is 22.5 µM (inactive); in [2] it was 31 µM (inactive); in assay [3], 22.9 µM (inactive); in assay [4] it was 21.9 µM (inactive); in assay [5], 22.2 µM; in [6], 29.8 µM (inactive). In addition, the GI50 in assay [7] is > 100 µM (inactive); in assay [8], > 100 µM (inactive); in [9], 10 µM (inactive); in assay [10] it was 39.3 µM (inactive); in assay [11], 44.9 µM (inactive); in assay [12], > 100 µM (inactive). In addition, the GI50 was 19.9 µM (inactive) in assay [13]; 20.7 µM (inactive) in assay [14]; 31.9 µM (inactive) in assay [15]; 18.7 µM (inactive) in assay [16]; 37.8 µM (inactive) in assay [17]; 29.2 µM (inactive) in assay [18]. Moreover, the GI50 is 27.4 µM (inactive) in [19] and 26.3 µM (inactive) in assay [20].

Consider `CCCN(CCCC(NC(C)=O)C(=O)NCc1ccccc1)C(=O)N(CCCl)N=O` (centres undefined), for which the GI50 in assay [1] was 24.3 µM (inactive); in [2] it was > 100 µM (inactive); in assay [3], > 100 µM (inactive); in assay [4], 20.7 µM (inactive); in [5], 15.5 µM; in assay [6], 7.4 µM (inactive). In addition, the GI50 in [7] was > 100 µM (inactive); in [8], 30.5 µM (inactive); in assay [9], 16.9 µM (inactive); in [10], 27 µM (inactive); in assay [11], 28.2 µM (inactive); in [12], 17.7 µM (inactive). Further, the GI50 is > 100 µM (inactive) in [13]; 5.58 µM (inactive) in assay [14]; 26.9 µM (inactive) in [15]; 4.4 µM (inactive) in assay [16]; > 100 µM (inactive) in assay [17]; 3.97 µM (inactive) in assay [18]. Also, the GI50 in [19] is 19.2 µM (inactive); in assay [20], 2.11 µM (inactive).

Take `CCC1(O)C(=O)OCc2c1cc1n(c2=O)Cc2cc3ccccc3nc2-1` (centres undefined): the GI50 in assay [1] was 0.334 µM (active); in assay [2], 0.139 µM (active); in assay [3], 0.0405 µM (active); in [4], 0.0471 µM (active); in [5] it was 0.239 µM; in assay [6], 0.167 µM (active). Further, the GI50 in [7] is 0.0444 µM (active); in [8], 0.0653 µM (active); in [9] it was 0.0455 µM (active); in [10] it was 0.0635 µM (active); in assay [11], 0.048 µM (active); in [12], 0.277 µM (active). Further, the GI50 was 0.0817 µM (active) in assay [13]; < 0.0215 µM (active) in assay [14]; 0.575 µM (active) in [15]; 0.895 µM (active) in assay [16]; 2.03 µM (inactive) in [17]; 0.017 µM (active) in assay [18]. The GI50 in assay [19] is 0.211 µM (active); in assay [20], < 0.0152 µM (active).

As for `c1ccc2c(c1)CCN(C1=NCCO1)C2`, the GI50 is > 10 µM (inactive) in assay [1]; > 10 µM (inactive) in assay [2]; > 10 µM (inactive) in [3]; > 10 µM (inactive) in [4]; greater than 10 µM in [5]; > 10 µM (inactive) in [6]. The GI50 in assay [7], in assay [8], in [9], in assay [10], in assay [11] and in assay [12] was > 10 µM (inactive) each time. The GI50 in [13], in assay [14], in assay [15], in [16], in [17] and in [18] was > 10 µM (inactive) throughout. In addition, the GI50 in assay [19] and in assay [20] was > 10 µM (inactive) in each case.

Take `Cc1ccc(S(=O)(=O)Oc2nc3ccccc3nc2N(S(=O)(=O)c2ccc(C)cc2)S(=O)(=O)c2ccc(C)cc2)cc1`: the GI50 in assay [1] was 55.6 µM (inactive); in assay [2], 35.8 µM (inactive); in [3], 84.1 µM (inactive); in assay [4] it was 74 µM (inactive); in assay [5] it was 31 µM; in [6] it was 34.8 µM (inactive). Further, the GI50 in assay [7] is 40.2 µM (inactive); in assay [8], 28.2 µM (inactive); in [9] it was > 10 µM (inactive); in assay [10], 92.3 µM (inactive); in assay [11], 32.1 µM (inactive); in [12] it was 22.5 µM (inactive). Moreover, the GI50 in assay [13] is 45 µM (inactive); in assay [14] it was 37.2 µM (inactive); in assay [15] it was 81.8 µM (inactive); in assay [16], 0.625 µM (active); in assay [17], 38.4 µM (inactive); in [18] it was 33 µM (inactive). Further, the results for the GI50 in [19] and in assay [20] were 90.6 µM (inactive) and > 100 µM (inactive), respectively.

As to `CSC1=NN(c2ccccc2)C(=O)C1=C(SC)SC`, the GI50 in [1] was 30.5 µM (inactive); in [2], 31.9 µM (inactive); in assay [3] it was 19.2 µM (inactive); in assay [4] it was 2.44 µM (inactive); in assay [5] it was 20.1 µM; in [6], 33.5 µM (inactive). Also, the GI50 in assay [7] is 18.4 µM (inactive); in assay [8] it was 19.1 µM (inactive); in assay [9], 20.1 µM (inactive); in [11], 14.3 µM (inactive); in [12], 16.1 µM (inactive); in [13], 30.7 µM (inactive). The GI50 in assay [14] was 27.4 µM (inactive); in [15], 22.8 µM (inactive); in assay [16] it was 25.6 µM (inactive); in [17], 15.1 µM (inactive); in assay [18] it was 15.9 µM (inactive); in assay [19] it was 27.4 µM (inactive). The GI50 in [20] is 20.2 µM (inactive).

Source of the values: ChEMBL document CHEMBL1201862, “PubChem BioAssay data set” (2004).
